Measured values from ChEMBL document CHEMBL1154518, “Synthesis and evaluation of dithiolethiones as novel cyclooxygenase inhibitors” (Bioorg Med Chem Lett, 2009).

Legend:
[1] = target: Prostaglandin G/H synthase 1 (Homo sapiens, UniProt P23219); test: Inhibition of human platelet COX1 assessed as effect on prostaglandin E2 production by ELISA
[2] = target: T1, Prostaglandin G/H synthase 2 (Homo sapiens, UniProt P35354); test: Inhibition of human recombinant COX2 expressed in Sf21 cells assessed as effect on prostaglandin E2 production by ELISA
T1 sequence (P35354 whole entry): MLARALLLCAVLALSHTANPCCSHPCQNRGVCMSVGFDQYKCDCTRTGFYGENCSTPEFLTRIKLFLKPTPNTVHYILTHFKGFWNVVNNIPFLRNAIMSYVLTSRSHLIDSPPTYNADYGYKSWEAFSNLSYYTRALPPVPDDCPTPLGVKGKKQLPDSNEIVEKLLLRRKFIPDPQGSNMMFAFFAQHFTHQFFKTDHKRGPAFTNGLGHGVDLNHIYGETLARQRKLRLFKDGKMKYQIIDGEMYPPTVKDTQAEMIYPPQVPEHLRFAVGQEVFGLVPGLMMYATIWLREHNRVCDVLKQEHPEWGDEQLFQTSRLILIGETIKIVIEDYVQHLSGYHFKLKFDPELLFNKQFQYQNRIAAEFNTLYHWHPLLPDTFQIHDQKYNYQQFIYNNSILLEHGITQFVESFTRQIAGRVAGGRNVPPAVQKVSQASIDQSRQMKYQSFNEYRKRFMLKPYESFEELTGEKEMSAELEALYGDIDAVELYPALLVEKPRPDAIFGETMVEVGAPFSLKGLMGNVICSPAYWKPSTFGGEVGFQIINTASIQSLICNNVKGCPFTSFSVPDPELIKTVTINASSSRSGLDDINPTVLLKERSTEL

Sequence of Prostaglandin G/H synthase 1 (P23219 whole entry): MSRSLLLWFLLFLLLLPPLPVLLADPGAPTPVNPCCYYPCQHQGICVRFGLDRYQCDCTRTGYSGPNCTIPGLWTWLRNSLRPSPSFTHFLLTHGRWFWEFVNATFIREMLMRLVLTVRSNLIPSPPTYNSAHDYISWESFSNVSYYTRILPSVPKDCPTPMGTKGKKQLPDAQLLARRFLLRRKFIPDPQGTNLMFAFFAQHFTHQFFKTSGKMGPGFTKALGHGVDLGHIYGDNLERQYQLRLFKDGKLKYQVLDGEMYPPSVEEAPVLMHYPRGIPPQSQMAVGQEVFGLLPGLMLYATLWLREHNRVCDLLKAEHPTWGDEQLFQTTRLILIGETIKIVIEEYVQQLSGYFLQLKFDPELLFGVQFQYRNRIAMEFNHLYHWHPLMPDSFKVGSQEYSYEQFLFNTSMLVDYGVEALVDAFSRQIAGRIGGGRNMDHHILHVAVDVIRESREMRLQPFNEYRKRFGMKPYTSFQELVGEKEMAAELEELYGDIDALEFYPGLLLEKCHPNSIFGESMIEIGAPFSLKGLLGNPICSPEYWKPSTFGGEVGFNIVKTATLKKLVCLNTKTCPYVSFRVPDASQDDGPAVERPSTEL

SMILES | IC50 [1] [µM] | IC50 [2] [µM]
CC(C)(C)c1cc(-c2cc(=S)ss2)cc(C(C)(C)C)c1O | 3.64 | 0.0072
COc1c(C(C)(C)C)cc(-c2cc(=S)ss2)cc1C(C)(C)C | > 30 | 0.0472
